Test results as given in patent publication US20260207605A1, “KRAS G12D INHIBITORS AND USES THEREOF” (Abbisko Therapeutics Co., Ltd., priority 2022, published 2026).

Assays:
in vivo = settings: male, ICR, mouse
[1] = Pharmacokinetic experiment in mice (single PO or IV administration); settings: male, ICR, mouse, plasma
AGS = experiment: Anti-proliferative 2D CTG assay, AGS; format: cell-based; settings: Homo sapiens, AGS, 96 h, AGS cells, 4 days incubation, read-out: AGS cell IC50
LS513 = experiment: Anti-proliferative 2D CTG assay, LS513; format: cell-based; settings: Homo sapiens, LS-513, 96 h, LS513 cells, 4 days incubation, read-out: LS513 cell IC50
Description: (§1) 1.1 Day 0 Cell Culture and Plating
(§2) Cells in a logarithmic growth phase were harvested and the cells were counted by using a […]. Cell viability was tested by using a trypan blue exclusion method to ensure that cell viability was above 90%. The cell concentration was adjusted to the desired final density, and 90 μL of cell suspension was added to a 96-well plate, then the cells were incubated overnight at 37° C., 5% CO2 and 95% humidity.
(§3) 10 μL PBS was added to each well of the TO plate containing cells. The CTG reagent was thawed and the plate was equilibrated to room temperature for 30 minutes. The CTG solution of 50 µL/well was added to each well. The cells were lysed by shaking on an orbital shaker for 5 minutes. The plate was left at room temperature for 20 minutes to stabilize the luminescence signal. The TO fluorescence signal value was read.
(§4) From the 10 mM stock solution, with a ratio of 1:5, 9-point serial dilutions were performed. The 10× medium containing the compound was transferred into corresponding wells of the 96 wells. The final maximum compound concentration was […] and the final DMSO concentration was 0.1%. The 96-well plate was placed in a 37° C. incubator and incubated for 4 days.
(§5) 50 μL/well of detection reagent (CTG) was added to the cells, and the signal was read in an Envision machine.
(§6) The percent inhibition (%) at each compound concentration was calculated from the signal in the HPE and ZPE control wells and the fluorescence signal in the individual compound wells included in each assay plate. […] The compound concentration required for inhibitory concentration at 50% (IC50) was determined using a four-parameter logarithmic dose-response equation by testing the concentration of the compound and the inhibition percentage value. The endpoint value (IC50) of the reference compound was assessed in each experiment as a quality control measure. If the endpoint value is within three times the expected value, the experiment may be considered acceptable.

AsPC-1 = experiment: Anti-proliferative 2D CTG assay, AsPC-1; format: cell-based; settings: Homo sapiens, ASPC1, 96 h, AsPC-1 cells, 4 days incubation, read-out: AsPC-1 cell IC50
KRAS^G12D/cRAF = KRAS^G12D/cRAF (Homo sapiens, UniProt P01116, G12D); experiment: KRAS G12D/cRAF binding test (Alphalisa); settings: His-tagged KRAS G12D with GMPPNP, GST-tagged cRAF
Sequence of KRAS^G12D/cRAF (P01116 1-188 isoform P01116-2 G12D): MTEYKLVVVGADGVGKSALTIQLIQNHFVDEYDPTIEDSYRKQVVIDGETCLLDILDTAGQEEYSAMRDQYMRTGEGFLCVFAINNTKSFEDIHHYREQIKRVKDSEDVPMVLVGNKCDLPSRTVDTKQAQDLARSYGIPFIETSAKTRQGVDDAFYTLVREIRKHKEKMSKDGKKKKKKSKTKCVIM

HPAC = experiment: Anti-proliferative 2D CTG assay, HPAC; format: cell-based; settings: Homo sapiens, 96 h, HPAC cells, 4 days incubation, read-out: HPAC cell IC50
Description: as §1, §2, §3, §4, §5, §6

Compound | AUC (in vivo; iv, 2 mg/kg) [ng·h/mL] | Cmax (in vivo; iv, 2 mg/kg) [ng/mL] | half-life (in vivo; iv, 2 mg/kg) [h] | AUC (in vivo; po, 10 mg/kg) [ng·h/mL] | Cmax (in vivo; po, 10 mg/kg) [ng/mL] | bioavailability (in vivo; po, 10 mg/kg) [%] | half-life (in vivo; po, 10 mg/kg) [h] | AUC ([1]; iv, 2 mg/kg) [ng·h/mL] | Cmax ([1]; iv, 2 mg/kg) [ng/mL] | half-life ([1]; iv, 2 mg/kg) [h] | AUC ([1]; po, 10 mg/kg) [ng·h/mL] | Cmax ([1]; po, 10 mg/kg) [ng/mL] | bioavailability ([1]; po, 10 mg/kg) [%] | half-life ([1]; po, 10 mg/kg) [h] | IC50 (AGS) [nM] | IC50 (LS513) [nM] | IC50 (AsPC-1) [nM] | IC50 (KRAS^G12D/cRAF) [nM] | IC50 (HPAC) [nM]
C#Cc1c(F)ccc2cc(N)cc(-c3ncc4c(N5C[C@H]6CC[C@@H](C5)N6)nc(OC[C@@]56CCCN5C/C(=C\F)C6)nc4c3F)c12 [Reference Compound 4, 4-(4-((1R,5S)-3,8-diazabicyclo [3.2.1]octan-3-yl)-8-fluoro-2-(((S,Z)-2-(fluoromethylene)tetrahydro-1H-pyrrolizin-7a(5H)-yl)methoxy)pyrido[4,3-d]pyrimidin-7-yl)-5-ethynyl-6-fluoronaphthalen-2-amine] | 163 | 104 | 8.4 | 52.8 | 14.8 | 6.5 | 4.6 | – | – | – | – | – | – | – | – | – | – | – | –
[2H]C([2H])([2H])C([2H])([2H])[C@@]12CC[C@@H](CN(c3nc(OC[C@@]45CCCN4C/C(=C\F)C5)nc4c(F)c(-c5cc(N)cc6ccc(F)c(C#C)c56)ncc34)C1)N2 [Example 137, 4-(4-((1R,5S)-1-(ethyl-d5)-3,8-diazabicyclo[3.2.1]octan-3-yl)-8-fluoro-2-(((S,Z)-2-(fluoromethylene)tetrahydro-1H-pyrrolizin-7a(5H)-yl)methoxy)pyrido [4,3-d]pyrimidin-7-yl)-5-ethynyl-6-fluoronaphthalen-2-amine] | – | – | – | – | – | – | – | 775 | 467 | 5.9 | 1880 | 298 | 48.6 | 2.9 | 9.4 | 14.4 | 37.6 | 9.5 | 11.7
